SMILES strings stand for the structures.

This experiment addresses T1, human SCD1 (hSCD-1) (Homo sapiens, UniProt O00767).
T1 construct: made in house; host or cells: baculovirus/Sf9
T1 sequence (O00767 1-359): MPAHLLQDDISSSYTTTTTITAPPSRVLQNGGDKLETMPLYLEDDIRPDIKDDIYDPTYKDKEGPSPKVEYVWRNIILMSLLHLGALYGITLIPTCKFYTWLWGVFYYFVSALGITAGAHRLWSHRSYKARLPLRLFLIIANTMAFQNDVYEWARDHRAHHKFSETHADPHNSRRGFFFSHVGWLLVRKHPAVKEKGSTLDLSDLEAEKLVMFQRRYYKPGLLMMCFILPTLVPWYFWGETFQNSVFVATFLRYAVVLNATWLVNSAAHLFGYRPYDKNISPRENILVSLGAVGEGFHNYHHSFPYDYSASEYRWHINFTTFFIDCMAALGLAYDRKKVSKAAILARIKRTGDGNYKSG
The experiment is described as follows: SCD enzyme activity assay with reconstituted human SCD1 (hSCD-1). It counts as biochemical. As to the method: I. SCD Enzyme Activity Assay:
The potency of compounds of formula I against the stearoyl-CoA desaturase was determined by measuring the conversion of radiolabeled stearoyl-CoA to oleoyl-CoA using rat liver microsome or human SCD1 (hSCD-1) following previously published procedures with some modifications (Joshi, et al., J. Lipid Res., 18: 32-36 (1977); Talamo, et al., Anal. Biochem, 29: 300-304 (1969)). Liver microsome was prepared from male Wistar or Sprague Dawley rats on a high carbohydrate diet for 3 days (LabDiet # 5803, Purina). The livers were homogenized (1:10 w/v) in a buffer containing 250 mM sucrose, 1 mM EDTA, 5 mM DTT and 50 mM Tris-HCl (pH 7.5). After a 100,000×g centrifugation for […], the liver microsome pellet was suspended in a buffer containing 100 mM sodium phosphate, 20% glycerol, 2 mM DTT, and stored at −78° C. Human SCD1 desaturase system was reconstituted using human SCD1 from a baculovirus/Sf9 expression system, cytochrome B5 and cytochrome B5 reductase. Typically, test compound in 2 μL DMSO was incubated for 15 min at room temperature with 180 μL of the SCD enzyme in a buffer containing 100 mM Tris-HCl (pH 7.5), ATP (5 mM), Coenzyme-A (0.1 mM), Triton X-100 (0.5 mM) and NADH (2 mM). The reaction was initiated by the addition of 20 μL of [^3H]-stearoyl-CoA (final concentration=2 μM, radioactivity concentration=1 μCi/mL). After 10 min, the reaction mixture (80 μL) was mixed with a calcium chloride/charcoal aqueous suspension (100 μL, charcoal (10% w/v) plus 25 μL, CaCl2 (2N). After centrifugation to precipitate the radioactive fatty acid species, tritiated water released from 9,10-[^3H]-stearoyl-CoA by the SCD enzyme was quantified on a scintillation counter.
`CNC(=O)c1cnc(N2CC(Oc3cc(F)ccc3Br)C2)cn1`: the IC50 (as a rule, the concentration at which inhibition is half-maximal) stood at 45 nM.

`O=C(Nc1ccccc1)c1cnc(N2CC(Oc3cc(F)ccc3Br)C2)cn1` had an IC50 of 29 nM. `O=C(Nc1ccsc1)c1cnc(N2CC(Oc3cc(F)ccc3Br)C2)cn1`: the IC50 was 24 nM.

In turn, `O=C(Nc1ccc2ccccc2c1)c1cnc(N2CC(Oc3cc(F)ccc3Br)C2)cn1` returned an IC50 of 23 nM. For `COc1ccc(NC(=O)c2cnc(N3CC(Oc4cc(F)ccc4Br)C3)cn2)cc1` the value was 9 nM. For `O=C(Nc1ccc(-c2cc[nH]n2)cc1)c1cnc(N2CC(Oc3cc(F)ccc3Br)C2)cn1` the value was 16 nM; for `O=C(O)CCc1ccc(NC(=O)c2cnc(N3CC(Oc4cc(F)ccc4Br)C3)cn2)cc1`, 45 nM; for `CS(=O)(=O)c1ccc(NC(=O)c2cnc(N3CC(Oc4cc(F)ccc4Br)C3)cn2)cc1`, 11 nM.

Source of the values: US20110183958A1, “AZETIDINE DERIVATIVES AS INHIBITORS OF STEAROYL-COENZYME A DELTA-9 DESATURASE” (Merck Frosst Canada Ltd., priority 2008, published 2011).
